Where two headings read alike, the source gives them in different places.
Legend:
[1] = test system: LP-BM5 murine leukemia virus (MuLV); test: MAIDS development in LP-BM5 infected mice after a single dose of vinblastine at different times post infection; format: in vivo, C57BL/6 mice
Description: A murine AIDS (MAIDS) pathology induced by LP-BM5 murine leukemia virus (MuLV) in susceptible mice is an effective tool to investigate mechanisms of retrovirus-induced immunodeficiency. […] Infection of a susceptible strain such as C57BL/6 mice with LP-BM5 leads to chronic splenomegaly, hypergammaglobulinaemia and development of immunodeficiency in both T and B cells. In vitro, there is a progressive impairment in the responsiveness of T-cells and B-cells to mitogenic or specific antigenic stimuli. In vivo, infected mice become increasingly susceptible to challenge with a variety of opportunistic organisms and can develop B-cell lymphoma. Deaths are first observed at 8-10 weeks post-infection (pi), and all mice die within 24 weeks (FIG. 1). These alterations in immune function reflect complex changes in the phenotype and function of all components of the immune network.
The treatment with a single dose of the anti-mitotic agent vinblastine (Vb) at different times pi is able to prevent the development/progression of MAIDS. […] Clearly, the Vb treatment is remarkably therapeutic when administered at 6 hr or 14 days pi with 100% ( 10/10) and 74% ( 20/27) of mice, respectively, showing no signs of MAIDS development at 10 weeks pi (as determined by spleen weight, histology and FACS analysis). […] Additional experiments have provided results of 100% of mice having no signs of MAIDS development at least 12 months after Vb treatment 14 days pi (data not shown). Although not as pronounced as the protection seen after day 14 treatment, moderate protection from MAIDS development was still observed. […] The total protection from MAIDS development seen in mice given Vb at 6 hrs pi is not unexpected as the virus replicates in actively replicating cells which are the target of the anti-mitotic drug thus any cells infected with the virus are killed by the Vb preventing the virus from rapidly establishing an infection in the host. However, the highly protective effect observed after a single treatment with Vb at 14 days pi is quite remarkable as, by this stage, the viral infection is well established and the early disease processes are well underway. We propose that this highly therapeutic effect is due to the Vb targeting a particular subset of immune regulator cells during their expansion phase and thereby altering the immune response to the viral infection. […] This leads to long term disease free survival for many months post-infection and treatment.
Spleens from the Day 14 pi Vb treated mice as well as infected and uninfected control mice were weighed and examined histologically. The splenic architecture of all MAIDS infected mice was profoundly disorganised as previously reported (Hartley et al., 1989).

[2] = test system: MAIDS virus; test: Rechallenge with MAIDS virus following protective vinblastine therapy; format: in vivo, mice; conditions: Vb at day 14 pi, rechallenge at 3 or 8 weeks post Vb treatment
Description: To determine if mice protected from MAIDS by the day 14 pi Vb treatment develop an immune response which would then protect them from a subsequent rechallenge with the MAIDS virus groups of mice, given the Vb therapy at day 14 pi, were rechallenged with the MAIDS virus at 3 or 8 weeks post Vb treatment. […] This is not an unexpected result as the dominant immunosuppression by the regulator population of cells would have been restored as a consequence of the immune effector response to the second (untreated) infection.

[3] = test system: murine T cell lymphoma; conditions: cited from earlier work
[4] = test system: CD4+, CD8+ and CD25+CD4+ T cells of spleen; test: FACS analysis of spleen cells following Vb therapy on day 14 post infection; format: in vivo, mice
Method: FACS analysis of CD4^+ and CD8^+ T cells prepared from spleens of mice treated with Vb on Day 14 pi was performed (FIG. 6). CD25^+CD4^+ T cells were also examined as they have recently been identified as having an important regulatory function in mouse models of autoimmune disease and tumour immunology (Takahashi et al., 1998; Shimizu et al., 1999). It is possible that these cells may play a role in the regulation of the immune response to MAIDS. Day 14 pi and uninfected control mice were given Vb therapy and the spleens collected at 48 hours post Vb treatment.

[5] = test system: MAIDS virus; test: Adoptive transfer of CD4+ CD25+/- cells into MAIDS infected, day 14 Vinblastine treated mice; format: in vivo; conditions: uninfected donor cells into MAIDS-infected day 14 Vb-treated recipients; n=5
Description: An adoptive transfer experiment was designed to directly test the hypothesis that CD4+ CD25+ T cells are functioning as the regulator cells in the murine AIDS model. The same approach used to determine that the regulator cells are CD4+ T cells was used to test whether the CD4+ CD25+ subset are the target of day 14 Vinblastine treatment. […] 2.0×10^6 cells of the regulator CD4+ CD25+ phenotype were purified from single cell suspensions of donor spleens using MACS beads (Miltenyi Biotec) using two positive selection steps. The cells were then tested for purity by flow cytometry (both CD4+ CD25+ and CD4+ CD25− fractions were of >90% purity) and viability using trypan blue exclusion prior to transfer into uninfected (control) and MAIDS infected day 14 Vinblastine treated mice. CD4+ CD25− cells were also transferred to allow that the regulator cells may not present in the CD25+ fraction and also to allow for the possibility that these putative regulator cells may lose CD25 expression as they expand and become activated as was reported by Gavin et al., 2002.
Mice receiving adoptive transfer of cells were either uninfected (control) or MAIDS infected and day 14 Vinblastine treated to examine whether the transfer of cells would result in disease progression. […] Disease progression was assessed by spleen weight at 10 weeks post MAIDS infection.

[6] = test system: MAIDS virus; test: Spleen cell transfer into MAIDS infected, day 14 Vb treated mice; format: in vivo
Description: The experiments illustrated in FIG. 7 were designed to determine if a single dose of Vb, administered at 14 days pi, is eliminating a population of expanding CD4^+regulator T cells and thereby releasing effector cells from down-regulation and clearing the host of the MAIDS virus.
Mice were infected with MAIDS, received day 14 pi Vb treatment and then received an adoptive transfer of ~10^7 spleen cells from donor mice prepared as outlined in FIG. 7. For each experiment [designated (I), (II) and (III)] groups consisted of 7 recipient mice and 9 donor mice. Mice in Group I received whole spleens from infected mice that had not received any Vb treatment. Mice in Group II received whole spleen cell preparations, from infected mice, that had been depleted of CD4^+ cells using a FACS cell sorter after staining with fluorochrome-labeled anti-CD4 monoclonal antibody. […] Mice in Group III received whole spleens from infected donor mice that also received Vb treatment on day 14 pi.

## CC[C@]1(O)C[C@@H]2CN(CCc3c([nH]c4ccccc34)[C@@](C(=O)OC)(c3cc4c(cc3OC)N(C)[C@H]3[C@@](O)(C(=O)OC)[C@H](OC(C)=O)[C@]5(CC)C=CCN6CC[C@]43[C@@H]65)C2)C1 [Vb, vinblastine]
[1]; Vb at day 14 pi, 4/5 mice
  mice protected from any splenomegaly at 20 weeks pi: 80%
[1]; Vb treatment 14 days pi, additional experiments, data not shown
  mice having no signs of MAIDS development at least 12 months after treatment: 100%
[1]; day 14 pi Vb treated mice with normal spleen weights (below 0.25 g)
  splenic architecture (histology) at 10 weeks pi: indistinguishable from that of uninfected control mice
[1]; day 14 pi Vb treated mice, preliminary, data not shown
  FACS analysis of spleen cells: cellular proportions (CD4+, CD8+ and B cells) and distributions at 10 weeks pi: like those observed in normal uninfected mice
[1]; single 6 mg/kg i.p. dose at 6 hr pi, 10/10 mice
  mice showing no signs of MAIDS development at 10 weeks pi (spleen weight, histology, FACS analysis): 100%
[1]; single 6 mg/kg i.p. dose at 6 days pi, 6/13 mice
  mice showing protective effect (no signs of MAIDS) at 10 weeks pi: 46%
[1]; single 6 mg/kg i.p. dose at 14 days pi, 20/27 mice
  mice showing no signs of MAIDS development at 10 weeks pi (spleen weight, histology, FACS analysis): 74%
[1]; single 6 mg/kg i.p. dose at day 2 pi
  protection against MAIDS development: no protection against MAIDS development
[1]; single 6 mg/kg i.p. dose at day 7 pi
  protection against MAIDS development: no protection against MAIDS development
[2]
  protection from viral rechallenge (splenomegaly, lymphadenopathy at 20 weeks): not protected from viral rechallenge
[3]; single dose at day 10 following tumour inoculation
  effect on tumour: enhancement
[3]; single dose at days 4, 6, 13 and 15 following tumour inoculation
  effect on tumour: regression
[4]; CD4+ T cells and CD25+CD4+ T cells, 48 hours post Vb at day 14 pi
  cell subsets targeted in MAIDS infected mice (uninfected to infected ratios): preferentially targeted
[4]; spleens collected 48 hours post Vb, day 14 pi and uninfected mice
  effect on spleen cell subsets: all cell subsets are reduced
[5]
  disease progression (spleen weight at 10 weeks post MAIDS infection) after transfer of CD4+ CD25+/- cells: disease progression was readily apparent
[6]; Group I: ~10^7 whole spleen cells from MAIDS infected donors without Vb
  protection from MAIDS development after spleen cell transfer: completely prevented Vb from protecting mice from MAIDS development
[6]; Group II: donor spleen cells depleted of CD4+ cells by FACS sorting
  protection from MAIDS development after spleen cell transfer: the protective effect of Vb was not overcome
[6]; Group III: spleen cells from infected donors also given day 14 Vb
  protection from MAIDS development after spleen cell transfer: fully protected from MAIDS development

Source: US20090041760A1, “RETROVIRAL IMMUNOTHERAPY” (priority 2000, published 2009)
